Source: paper PMC10322960 (European Journal of Drug Metabolism and Pharmacokinetics, 2023)

Assay: Phase 1 clinical drug–drug interaction study, safety assessment
Format: in vivo, human
Conditions: Cohort 1, 12 subjects; mild in severity

## CCC(C)n1ncn(-c2ccc(N3CCN(c4ccc(OCC5COC(Cn6cncn6)(c6ccc(Cl)cc6Cl)O5)cc4)CC3)cc2)c1=O (centres unmarked) [itraconazole, reference compound]
  number of treatment-emergent AEs considered related to the drug: 5
  subjects with treatment-emergent AEs considered related to the drug: 16.7%
